Measured values from PMC7074905, “Multivalent Lactose–Ferrocene Conjugates Based on Poly (Amido Amine) Dendrimers and Gold Nanoparticles as Electrochemical Probes for Sensing Galectin-3” (Nanomaterials, 2020).

Target: T1, Human galectin-3 (Gal-3) (Homo sapiens, UniProt P17931)
T1 construct: gene LGALS3; mainly monomeric in solution
Assay: isothermal titration calorimetry
Format: binding
Conditions: 20 mM phosphate pH 7.2, 150 mM NaCl, 25 °C; equal and independent sites model, n = 1.00 buffer and model; tetravalent ligand, n = 0.19 ± 0.05, cross-linking; read-out: K.10^-4 (M^-1)
Description: isothermal titration calorimetry on Human galectin-3 (Gal-3)

T1 sequence (P17931 2-250): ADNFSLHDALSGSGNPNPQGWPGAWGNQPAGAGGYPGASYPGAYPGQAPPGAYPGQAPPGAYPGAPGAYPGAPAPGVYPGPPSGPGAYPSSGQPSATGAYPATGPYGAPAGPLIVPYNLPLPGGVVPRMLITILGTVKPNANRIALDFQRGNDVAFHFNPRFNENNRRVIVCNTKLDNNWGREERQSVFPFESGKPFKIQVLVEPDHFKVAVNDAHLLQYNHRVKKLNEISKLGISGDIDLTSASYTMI

For “G0-PAMAM-(COCH2CH2TACH2FcCH2TACH2Lac)4 [compound 12]”, the Kd was 3.14 µM.
